This note sets out measurements from US20090220469A1, “PEPTIDES AGAINST AUTOANTIBODIES ASSOCIATED WITH GLAUCOMA AND USE OF THESE PEPTIDES” (MAX-DELBRUECK-CENTRUM FUER MOLEKULARE MEDIZIN, priority 2006, published 2009).

The assay relates to agonistic autoantibodies against the β2 adrenergic receptor (immunoglobulin fraction of POAG patients). Briefly: Neutralization of agonistic autoantibodies by synthetic peptides, beating rate of spontaneously beating neonatal rat cardiomyocytes. The format is cell-based. Particulars: for blocking of the stimulating effect of the antibodies by extracellular loop peptides: immunoglobulins from 6 POAG patients preexposed to peptides of the first, second and third extracellular β2 receptor loops, 0.5 μg peptide in 50 μl; for recognition of epitopes by the antibodies: 5 overlapping peptides of loop II of the β2 adrenergic receptor, FIG. 6; for effect on the antibody-induced increase in the spontaneous beating rate: immunoglobulins of 5 patients with POAG preincubated with short, overlapping peptides of the second extracellular loop of the β2 receptor, neonatal rat cardiomyocytes. The procedure: Preparation of the immunoglobulin fraction. The immunoglobulin fraction was isolated from 1- to 2-ml serum samples by ammonium sulfate precipitation at a saturation of 40%. The precipitates were washed and dissolved in dialysis buffer (154 mmol/l NaCl, 10 mmol/l sodium phosphate; pH 7.2). The procedure of precipitating, washing, and dissolving was repeated twice.
Finally, the immunoglobulins were taken up in 1 ml PBS (pH 7.2) and dialyzed at 4° C. for 30 hours against 1 l of dialysis buffer. The buffer was changed five times during dialysis. For detection of autoantibodies, the immunoglobulin fractions were added at a dilution of 1:20 or 1:40 to the flasks.
After the dialysis, the IgG fractions feature a concentration of 10-15 mg/ml, a maximum of 10 μg/ml of which are specific receptor antibodies. 50 μl of this IgG solution are pre-incubated with the peptides with the following concentration of peptides: 5 μl of a buffered solution of 100 μg/ml per 50 μl IgG solution. This mixture is pre-incubated at room temperature for 30 minutes and subsequently filled into the cell culture vials, after the former nutrient solution has been removed by pipet. The amount of the medium is 2 ml. The final concentration therefore is of […] for the IgG and 0.5 μg for the peptides. If the molecular weight of the peptide (10 mer) is set with 1 KD and that of the IgG is set with 150 KD, there is an […].
For the neutralization experiments, synthetic peptides corresponding to the sequence of the three extracellular loops of the human β2 adrenegic receptor was added in excess (0.5 μg in 50 μl) to 50 μl of the immunoglobulin fraction. The mixtures were shaken and incubated at room temperature for 1 h. The 100-μl samples were then added to neonatal rat heart muscle cells cultured in 2 ml medium to a final dilution of 1:40. The beating rate was counted for 15 s, 60 min after the addition of the peptide/immunoglobulin mixture.
For identifying the autoantibody neutralizing epitopes synthetic overlapping peptides corresponding to the sequence of the second extracellular loop of the human β2 adrenoceptor was added to the immunoglobulins. After 1 h incubation at room temperature the samples were used as described above.

With “loop II peptide: synthetic peptide corresponding to the sequence of the second extracellular loop of the human β2 adrenergic receptor (HWYRATHQEAINCYANETCCDFFTNQ)”, the “blocking of the stimulating effect of the antibodies by extracellular loop peptides” value was “blocks the antibody activity to stimulate the rat cardiomyocytes”. Besides, the “blocking of the stimulating effect of the antibodies by extracellular loop peptides” value (listed as peptides from the second extracellular loop) is “blocked the effect”.
Take AINCYAN [Ala-Ile-Asn-Cys-Tyr-Ala-Asn]: the “recognition of epitopes by the antibodies” value was “Antibodies recognize the epitopes” and the “effect on the antibody-induced increase in the spontaneous beating rate” value was “abolished the increase in the spontaneous beating rate in all 5 patients tested”.
In the same order, the values of ANETCCD [Ala-Asn-Glu-Thr-Cys-Cys-Asp] are “Antibodies recognize the epitopes” and “abolished the increase in the spontaneous beating rate in all 5 patients tested”.
